{"source": "paper PMC10004195", "about": "“Novel Dual-Target Kinase Inhibitors of EGFR and ALK Were Designed, Synthesized, and Induced Cell Apoptosis in Non-Small Cell Lung Cancer” (Molecules, 2023)", "key": {"[1]": {"system": "H1975 (EGFR T790M/L858R) cells", "test": "CCK8 antiproliferative assay, H1975 cells", "type": "cell-based, human", "settings": "Homo sapiens", "excerpt": "The human cancer cell lines (H1975, H2228) used in this study were purchased from the Guangzhou ginny ou biotechnology Co., Ltd. (Guangzhou, China). The human cancer cell lines (NCI-H522) used in this study were purchased from the Shenzhen Haodi Huatuo Biotechnology Co., LTD (Shenzhen, China). The human cancer cell lines (LOVO, HLF, BJ, LO2) used in this study were purchased from the Laboratory Animal Service Center at Sun Yat-sen University (Guangzhou, China). […] Cell lines LOVO, HLF, BJ, and LO2 were cultivated in DMEM containing 10% (v/v) heat-inactivated fetal bovine serum (FBS), 100 units/mL penicillin, and 100 μg/mL streptomycin."}, "[2]": {"system": "H522 cells", "test": "CCK8 antiproliferative assay, H522 cells", "type": "cell-based", "settings": "Homo sapiens, NCI-H522, 72 h", "excerpt": "The human cancer cell lines (H1975, H2228) used in this study were purchased from the Guangzhou ginny ou biotechnology Co., Ltd. (Guangzhou, China). The human cancer cell lines (NCI-H522) used in this study were purchased from the Shenzhen Haodi Huatuo Biotechnology Co., LTD (Shenzhen, China). The human cancer cell lines (LOVO, HLF, BJ, LO2) used in this study were purchased from the Laboratory Animal Service Center at Sun Yat-sen University (Guangzhou, China). Cell lines were cultivated in 1640 containing 10% (v/v) heat-inactivated fetal bovine serum (FBS), 100 units/mL penicillin, and 100 μg/mL streptomycin. Cell lines LOVO, HLF, BJ, and LO2 were cultivated in DMEM containing 10% (v/v) heat-inactivated fetal bovine serum (FBS), 100 units/mL penicillin, and 100 μg/mL streptomycin."}, "[3]": {"system": "HK2 (human kidney proximal convoluted tubule epithelial cells)", "test": "Cytotoxicity test on nontumorigenic cells, HK2", "type": "cell-based", "excerpt": "(§1) It is critical to evaluate the balance between the safety and efficacy of drugs for the development of new drugs; thus, we then conducted a cytotoxicity test on […] types of nontumorigenic cell lines from different origins, including LO2 (human normal liver cells), HK2 (human kidney proximal convoluted tubule epithelial cells), HLF (human embryonic lung fibroblast), 293A (human embryonic kidney cells), and HUVEC (human umbilical vein endothelial cells). […] In addition, we evaluated the compound’s safety in vivo by performing acute toxicity tests in mice, and 9j was injected intravenously at concentrations of 100 mg/kg, 150 mg/kg, and 300 mg/kg.\n(§2) A total of 7000 cells per well were seeded in a 96-well plate with at least three technical replicates; then, exposed to different concentrations (10, 5, 1, 0.1, 0.05, 0.01 uM) of the test compounds for 72 h. After the treatment, CCK8 (Sigma, St. Louis, MO, USA) was added to each well under sterile conditions (to a final concentration of 10% of the total volume) and the plates were incubated for 2–4 h at 37 °C. Absorbance was measured at 450 nm in a microplate reader."}, "[4]": {"system": "293A (human embryonic kidney cells)", "test": "Cytotoxicity test on nontumorigenic cells, 293A", "type": "cell-based", "excerpt": "as §1, §2"}, "[5]": {"target": "EML4-ALK (Homo sapiens, UniProt Q9UM73)", "sequence (Q9UM73 1058-1620)": "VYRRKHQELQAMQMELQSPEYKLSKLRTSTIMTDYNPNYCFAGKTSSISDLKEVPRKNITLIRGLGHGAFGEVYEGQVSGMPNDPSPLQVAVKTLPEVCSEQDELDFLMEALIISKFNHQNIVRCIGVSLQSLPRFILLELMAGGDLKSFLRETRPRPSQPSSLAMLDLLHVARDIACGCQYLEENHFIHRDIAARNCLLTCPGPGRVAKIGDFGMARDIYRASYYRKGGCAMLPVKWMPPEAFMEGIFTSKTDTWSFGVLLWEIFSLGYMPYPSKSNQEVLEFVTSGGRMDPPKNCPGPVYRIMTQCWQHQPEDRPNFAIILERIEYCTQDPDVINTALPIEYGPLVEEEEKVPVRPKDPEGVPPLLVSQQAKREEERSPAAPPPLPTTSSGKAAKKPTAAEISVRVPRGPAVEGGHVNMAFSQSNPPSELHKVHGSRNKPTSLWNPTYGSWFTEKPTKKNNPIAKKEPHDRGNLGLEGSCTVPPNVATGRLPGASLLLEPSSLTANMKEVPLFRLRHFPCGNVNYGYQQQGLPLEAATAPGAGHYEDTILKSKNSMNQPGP", "sequence (Q9HC35 1-496, further chain)": "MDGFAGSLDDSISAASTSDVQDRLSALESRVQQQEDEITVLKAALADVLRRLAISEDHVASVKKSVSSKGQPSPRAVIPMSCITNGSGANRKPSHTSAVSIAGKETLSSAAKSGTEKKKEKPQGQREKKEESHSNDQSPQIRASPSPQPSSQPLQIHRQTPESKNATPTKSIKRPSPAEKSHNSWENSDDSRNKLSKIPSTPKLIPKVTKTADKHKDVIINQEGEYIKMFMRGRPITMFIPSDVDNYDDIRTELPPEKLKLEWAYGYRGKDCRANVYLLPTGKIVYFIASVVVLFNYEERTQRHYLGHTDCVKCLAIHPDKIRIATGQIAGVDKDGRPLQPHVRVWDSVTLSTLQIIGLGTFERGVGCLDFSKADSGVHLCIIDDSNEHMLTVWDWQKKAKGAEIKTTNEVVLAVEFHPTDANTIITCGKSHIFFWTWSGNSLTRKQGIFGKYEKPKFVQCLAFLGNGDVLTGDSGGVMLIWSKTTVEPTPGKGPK", "test": "Kinase ELISA assay, EML4-ALK", "type": "biochemical", "settings": "read-out: IC50 against EML4-ALK", "method": "(§3) Four kinases (EGFR, EGFR^L858R/T790M, ALK, and EML4-ALK) were tested using an ELISA assay. […] There was no effect on the wild-type EGFR or ALK kinases triggered by the compound. Consequently, the selection of the compound was good as both compounds balanced IC50 against EGFR and ALK, respectively. […] Following that, fluorescence assays were used to measure the phosphorylation of the EGFR and ALK protein affect with compound 9j at the cellular level. […] Next, WB assay was used to test the protein expression of H1975 and H2228 cells at the concentration of 5, 10, and 100 nM."}, "[6]": {"system": "H1975 cells", "test": "Apoptosis assay by flow cytometry (annexin V / PI)", "type": "cell-based, human", "settings": "48 h, control 6.07%", "excerpt": "The death of cells occurs by apoptosis, and the uncontrolled division and multiplication of cells causes cancer. Inhibiting cellular apoptosis is primarily responsible for cancer cell survival, since cellular apoptosis is negatively correlated with cell growth. We then verified the antitumor effect of compound 9j by inducing apoptosis through flow cytometry.\nTo assay the number of apoptotic cells, cells were stained with allo-phycocyanin–annexin V (#550475, BD Pharmingen, Becton Drive Franklin Lakes, NJ, USA) for 15 min; then, they were washed and resuspended in 1:500 propidium iodide (#81845, Sigma-Aldrich, St. Louis, Mo, USA) viability marker, and acquired on LSRFortessa. Data were analyzed with FlowJo software. Annexin V+ cells were considered as apoptotic cells."}, "[7]": {"system": "mice", "test": "Acute toxicity test in mice", "settings": "injected intravenously, 100, 150 and 300 mg/kg (Figure S1)", "excerpt": "as §1"}, "[8]": {"system": "p-EGFR", "test": "Western blot, p-EGFR", "type": "cell-based, human", "settings": "WB, 5, 10 and 100 nM, 3 h treatment", "method": "as §3\n(§4) H1975 (H2228) cells seeded in 60 mm dishes at a density of 5 × 10^5 cells/well were incubated with or without compound 9j (0, 5, 10, 100 nM) for 2–4 h. After treatment, cells were stained as previously described."}, "[9]": {"system": "p-ALK", "test": "Western blot, p-ALK", "type": "cell-based, human", "settings": "WB, 5, 10 and 100 nM, 3 h treatment", "method": "as §3, §4"}, "[10]": {"system": "p-ERK", "test": "Western blot, p-ERK", "type": "cell-based, human", "settings": "WB, 5, 10 and 100 nM, 3 h treatment", "method": "as §3, §4"}, "[11]": {"system": "H1975 cells", "test": "Wound-healing (cell scratching) assay", "type": "cell-based, human", "settings": "H1975, 48 h; PBS group about 70%", "method": "The migration and invasion of tumor cells directly contribute to metastasis. Metastasis is the leading cause of death in cancer patients. To determine the ability of 9j to inhibit tumor cell migration, the cell scratching assay was performed. Following scratching, phase contrast pictures were taken of the scratched and healing cell monolayers.\nH1975 cells were plated in a six-well culture dish at 5 × 10^4 cells/dish and grown for 24 h, and […]. The medium was then replaced with a serum-free 1640 medium and treated with compound 9j at the indicated concentrations for another 24 h or 48 h. After the samples were washed with phosphate buffer solution (PBS), the cell images were immediately detected by a Zeiss LSM 570 laser scanning confocal microscope (Carl Zeiss, Jena, Germany)."}}, "note": "Like-named read-outs stand apart in the source and are kept apart here."}
{"smiles": "C=CC(=O)Nc1cc(Nc2ncc(Cl)c(Nc3ccc(Cl)cc3[S+]([O-])C(C)C)n2)c(OC)cc1C1CCN(C)CC1", "note": "(stereo not shown) [9j, N-(5-((5-Chloro-4-((4-chloro-2-(isopropylsulfinyl)phenyl)amino)pyrimidin-2-yl)amino)-4-methoxy-2-(1-methylpiperidin-4-yl)phenyl)acrylamide]", "values": [{"measurement": "IC50", "setting": "[1]; NCI-H1975, 72 h, CCK8 assay, 72 h, H1975 (EGFR T790M/L858R), read-out: IC50 H1975", "value": "78.3 ± 30", "unit": "nM"}, {"measurement": "IC50", "setting": "[1]; NCI-H1975, H1975, mean ± SE, unit inferred, read-out: IC50 H1975 (Table 2)", "value": "78.3 ± 30", "unit": "nM"}, {"measurement": "IC50", "setting": "[2]", "value": "> 10000", "unit": "nM"}, {"measurement": "Selectivity Ratio (IC50 human normal cells)/(IC50 H1975), HK2", "setting": "[3]; HK2 vs H1975", "value": 329.6}, {"measurement": "IC50", "setting": "[3]; Homo sapiens, Epithelial cell, HK2, mean ± SE, read-out: Toxicity to normal cells, IC50 HK2", "value": "25710 ± 80", "unit": "nM"}, {"measurement": "Selectivity Ratio (IC50 human normal cells)/(IC50 H1975), 293A", "setting": "[4]; 293A vs H1975", "value": 255.5}, {"measurement": "IC50", "setting": "[4]; Homo sapiens, 293A, mean ± SE, read-out: Toxicity to normal cells, IC50 293A", "value": "20000 ± 50", "unit": "nM"}, {"measurement": "IC50", "setting": "[5]", "value": "56.3 ± 0.3", "unit": "nM"}, {"measurement": "apoptotic rate", "setting": "[6]; 10 nM", "value": 12.7, "unit": "%"}, {"measurement": "apoptotic rate", "setting": "[6]; 50 nM", "value": 26.8, "unit": "%"}, {"measurement": "apoptotic rate", "setting": "[6]; 100 nM", "value": 47.67, "unit": "%"}, {"measurement": "HE staining of lung and heart tissues", "setting": "[7]", "value": "did not indicate toxicity"}, {"measurement": "expression of p-EGFR", "setting": "[8]", "value": "inhibited"}, {"measurement": "expression of p-ALK", "setting": "[9]", "value": "inhibited"}, {"measurement": "expression of p-ERK", "setting": "[10]", "value": "inhibited"}, {"measurement": "scratch healing rate", "setting": "[11]", "value": "clearly decreased"}]}
